Test results from PubChem BioAssay (NCI).
Several values for one entry are separate records, joined by “and”; a condition that tells them apart may be missing. Equal values may be shown once.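 Compound exposure: 48 hours, 5 concentrations, 96-well plates. At the GI50, growth is halved. The concentration for full growth arrest is given as TGI.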

Tests used:
Experiment in all cases: NCI-60 cell line screen, 48 h
CAKI-1 renal = system: CAKI-1 renal
UACC-257 melanoma = system: UACC-257 melanoma
HOP-62 NSCLC = system: HOP-62 NSCLC
HL-60(TB) leukemia = system: HL-60(TB) leukemia
SK-OV-3 ovarian = system: SK-OV-3 ovarian
MALME-3M melanoma = system: MALME-3M melanoma
KM12 colon = system: KM12 colon
SK-MEL-2 melanoma = system: SK-MEL-2 melanoma
SR leukemia = system: SR leukemia
NCI/ADR-RES ovarian = system: NCI/ADR-RES ovarian

Structure (SMILES) | TGI (CAKI-1 renal) [µM] | TGI (UACC-257 melanoma) | TGI (HOP-62 NSCLC) [µM] | TGI (HL-60(TB) leukemia) [µM] | TGI (SK-OV-3 ovarian) [µM] | TGI (MALME-3M melanoma) [µM] | TGI (KM12 colon) | TGI (SK-MEL-2 melanoma) [µM] | GI50 (SR leukemia) [µM] | TGI (SR leukemia) | GI50 (MALME-3M melanoma) [µM] | GI50 (HOP-62 NSCLC) [µM] | GI50 (HL-60(TB) leukemia) [µM] | GI50 (SK-OV-3 ovarian) [µM] | GI50 (KM12 colon) | GI50 (SK-MEL-2 melanoma) [µM] | GI50 (NCI/ADR-RES ovarian) [µM] | TGI (NCI/ADR-RES ovarian) [µM] | GI50 (CAKI-1 renal) [µM] | GI50 (UACC-257 melanoma) [µM]
COc1ccc2oc(C(=O)O)c3c2c1CCC3 | > 100 | > 100 µM | > 100 | > 100 | > 100 | – | – | – | – | – | – | – | – | – | – | – | – | – | – | –
CC1OC(OC2C(CO)OC(O[C@H]3CC[C@@]4(C)C(=CC[C@H]5[C@@H]6C[C@@H]7O[C@]8(CC[C@@H](C)CN8)[C@@H](C)[C@@H]7[C@@]6(C)CC[C@@H]54)C3)C(O)C2O)C(O)C(O)C1O (stereo partly drawn) | > 100 | > 100 µM | > 100 | > 100 | > 100 | > 100 | > 100 µM | > 100 | – | – | – | – | – | – | – | – | – | – | – | –
CC/C(=C(/c1ccc(O)cc1)c1ccc(OCCN2CCCCC2)cc1)c1ccc(OC)cc1 | – | – | 3.91 | 4.1 | 27.3 | 2.98 | 12.2 µM | 4.83 | 0.215 | 0.649 µM | 1.42 | 1.83 | 1.99 | 14 | 2.63 µM | 2.04 | 8.15 | 22.4 | – | –
Cc1cc2c(c3oc(C4(C)OC4C4OC4C)cc(=O)c13)C(=O)c1c(O)c(C3CC(C)(N(C)C)C(O)C(C)O3)cc(C3CC(N(C)C)C(O)C(C)O3)c1C2=O (stereo not drawn) | – | 0.00312 µM and 0.000772 µM | – | – | – | – | 0.0419 µM and 0.00486 µM | – | – | 0.00495 µM and 0.0102 µM | – | – | – | 0.00238 | 0.000894 µM and 0.000134 µM | – | – | – | 0.000145 | –
CCOc1ccccc1NC(=O)CCc1n[nH]c(=S)o1 | > 100 | > 100 µM | – | > 100 | > 100 | > 100 | > 100 µM | > 100 | – | > 100 µM | – | – | – | – | – | – | – | – | – | –
CCOC(=O)/C(C#N)=C1/C(O)=C(C(=O)OC)C(C(=O)OC)=C1C(=O)OC | > 100 | > 100 µM | – | > 100 | > 100 | > 100 | > 100 µM | > 100 | – | – | – | – | – | – | – | – | – | – | – | –
CC[C@@H]1C[C@H]2CC3c4[nH]c5ccc(O)cc5c4CCN(C2)C31 | > 100 | > 100 µM | > 100 | > 100 | – | > 100 | > 100 µM | > 100 | – | > 100 µM | – | – | – | – | – | – | – | – | – | –
C=C(CN1CCN(c2cccc(C(F)(F)F)n2)CC1)c1ccc(C(=S)Nc2ccccc2N)cc1 | > 100 | 18.8 µM | > 100 | 5.66 | – | – | > 100 µM | > 100 | 2.44 | 6.49 µM | – | 8.08 | 2.29 | – | 4.04 µM | 4.13 | 3.12 | > 100 | 3.26 | 3.33
S=c1nc(Cl)cc2[nH]c(Cl)cn12 | > 100 | > 100 µM | > 100 | – | 8.4 | > 100 | 33.9 µM | > 100 | – | – | – | – | – | – | – | – | – | 6.89 | – | –
c1ccc2c(c1)[nH]c1c2nc2ncccn21 | > 100 | > 100 µM | > 100 | – | > 100 | > 100 | > 100 µM | > 100 | – | > 100 µM | – | – | – | – | – | – | – | – | – | –
C[C@H](CCCNCCCNCCCN)[C@H]1CC[C@H]2[C@@H]3[C@H](OCCCN)C[C@H]4C[C@H](OCCCN)CC[C@]4(C)[C@H]3C[C@H](OCCCN)[C@]12C | > 100 | 59.5 µM | > 31.5 | – | > 100 | 26 | 6.05 µM | > 100 | 0.326 | 1.66 µM | 4.27 | 1.44 | – | 35.7 | 0.355 µM | 47.5 | 4.75 | 69.3 | 16 | 9.63
